These results are taken from ChEMBL document CHEMBL1125996, “Avermectin analogs with a spacer between the aglycone and the disaccharide” (1991).

The first test has as its system Artemia salina. In words: Compound was tested for its inhibitory activity using brine shrimp (Artemia salina) immobilization assay. It counts as functional.
Take `CC[C@H](C)[C@H]1O[C@]2(CC[C@@H]1C)C[C@@H]1C[C@@H](C/C=C(\C)[C@@H](OCOCCO[C@@H]3C[C@H](OC)[C@@H](O[C@H]4C[C@H](OC)[C@@H](O)[C@H](C)O4)[C@H](C)O3)[C@@H](C)/C=C/C=C3\CO[C@@H]4[C@H](O)C(C)=C[C@@H](C(=O)O1)[C@]34O)O2`: the IC100 came out at 27800 ng/mL.
Molecule `CC[C@H](C)[C@H]1O[C@]2(CC[C@@H]1C)C[C@@H]1C[C@@H](C/C=C(\C)[C@@H](OCOCCO[C@H]3C[C@H](OC)[C@@H](O[C@H]4C[C@H](OC)[C@@H](O)[C@H](C)O4)[C@H](C)O3)[C@@H](C)/C=C/C=C3\CO[C@@H]4[C@H](O)C(C)=C[C@@H](C(=O)O1)[C@]34O)O2` gave an IC100 of 27800 ng/mL.
On the same count and under the same terms, next, `CC[C@H](C)[C@H]1O[C@]2(CC[C@@H]1C)C[C@@H]1C[C@@H](C/C=C(\C)[C@@H](OCCO[C@H]3C[C@H](OC)[C@@H](O[C@H]4C[C@H](OC)[C@@H](O)[C@H](C)O4)[C@H](C)O3)[C@@H](C)/C=C/C=C3\CO[C@@H]4[C@H](O)C(C)=C[C@@H](C(=O)O1)[C@]34O)O2`: 1730 ng/mL; `CC[C@H](C)[C@H]1O[C@]2(CC[C@@H]1C)C[C@@H]1C[C@@H](C/C=C(\C)[C@@H](OCCO[C@@H]3C[C@H](OC)[C@@H](O[C@H]4C[C@H](OC)[C@@H](O)[C@H](C)O4)[C@H](C)O3)[C@@H](C)/C=C/C=C3\CO[C@@H]4[C@H](O)C(C)=C[C@@H](C(=O)O1)[C@]34O)O2`: 1730 ng/mL; `CC[C@H](C)[C@H]1O[C@]2(CC[C@@H]1C)C[C@@H]1C[C@@H](C/C=C(\C)[C@@H](OC(=O)OCCO[C@@H]3C[C@H](OC)[C@@H](O[C@H]4C[C@H](OC)[C@@H](O)[C@H](C)O4)[C@H](C)O3)[C@@H](C)/C=C/C=C3\CO[C@@H]4[C@H](O)C(C)=C[C@@H](C(=O)O1)[C@]34O)O2`: 41650 ng/mL.
The same measure, in the same setting: the same measure for `CC[C@H](C)[C@H]1O[C@]2(C=C[C@@H]1C)C[C@@H]1C[C@@H](C/C=C(\C)[C@@H](O[C@H]3C[C@H](OC)[C@@H](O[C@H]4C[C@H](OC)[C@@H](O)[C@H](C)O4)[C@H](C)O3)[C@@H](C)/C=C/C=C3\CO[C@@H]4[C@H](O)C(C)=C[C@@H](C(=O)O1)[C@]34O)O2` [ABAMECTIN COMPONENT B1A]: 430 ng/mL.

The test system of the next test is Artemia salina. The experiment in a line: Compound was tested for its inhibitory activity using brine shrimp (Artemia salina) immobilization assay; highest level tested, showed <100% activity. It counts as functional.
`CC[C@H](C)[C@H]1O[C@]2(CC[C@@H]1C)C[C@@H]1C[C@@H](C/C=C(\C)[C@@H](OC(=O)OCCO[C@H]3C[C@H](OC)[C@@H](O[C@H]4C[C@H](OC)[C@@H](O)[C@H](C)O4)[C@H](C)O3)[C@@H](C)/C=C/C=C3\CO[C@@H]4[C@H](O)C(C)=C[C@@H](C(=O)O1)[C@]34O)O2` showed an IC100 of over 55500 ng/mL.
